Measured values: PubChem BioAssay (NCI)
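In this assay, cells in 96-well plates receive the compound at five concentrations for 48 hours. Endpoints are linearly interpolated between the surrounding concentrations. TGI is the concentration that stops growth completely.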

How the values were obtained:
Assay in all cases: NCI tumour cell line growth inhibition, 48 h
[1] = system: SF-295 CNS
[2] = system: RXF-631 renal
[3] = system: DMS 273 small cell lung
[4] = system: M14 melanoma
[5] = system: CAKI-1 renal
[6] = system: LXFL 529 NSCLC
[7] = system: HCT-15 colon
[8] = system: HOP-92 NSCLC
[9] = system: KM12 colon
[10] = system: NCI-H460 lung
[11] = system: SK-MEL-5 melanoma
[12] = system: CCRF-CEM leukemia
[13] = system: K-562 leukemia
[14] = system: OVCAR-4 ovarian
[15] = system: HCT-116 colon
[16] = system: HT29 colon
[17] = system: HOP-62 NSCLC
[18] = system: SF-268 CNS
[19] = system: OVCAR-5 ovarian
[20] = system: NCI-H226 lung
[21] = system: U251 CNS
[22] = system: UACC-257 melanoma
[23] = system: DLD-1 colon
[24] = system: TK-10 renal
[25] = system: MOLT-4 leukemia
[26] = system: SK-MEL-2 melanoma
[27] = system: A549 NSCLC
[28] = system: KM20L2 colon
[29] = system: SNB-19 CNS
[30] = system: SN12C renal
[31] = system: HCC-2998 colon
[32] = system: HOP-18 NSCLC
[33] = system: RPMI-8226 leukemia
[34] = system: SNB-75 CNS
[35] = system: NCI-H522 lung
[36] = system: IGROV1 ovarian
[37] = system: 786-0 renal
[38] = system: SK-OV-3 ovarian
[39] = system: SR leukemia
[40] = system: UO-31 renal
[41] = system: SW-620 colon
[42] = system: LOX IMVI melanoma
[43] = system: ACHN renal
[44] = system: MALME-3M melanoma
[45] = system: DMS 114 small cell lung
[46] = system: RXF 393 renal
[47] = system: COLO 205 colon
[48] = system: HL-60(TB) leukemia
[49] = system: OVCAR-8 ovarian
[50] = system: M19-MEL melanoma
[51] = system: SF-539 CNS
[52] = system: SNB-78 CNS
[53] = system: A498 renal
[54] = system: UACC-62 melanoma
[55] = system: SK-MEL-28 melanoma
[56] = system: NCI-H23 lung
[57] = system: OVCAR-3 ovarian
[58] = system: EKVX NSCLC

## CC1=C(C)CC2(SC1)C(=O)c1ccccc1C2=O
[1]
  TGI: > 100 µM
[2]
  TGI: > 100 µM
[3]
  TGI: > 100 µM
[4]
  TGI: > 100 µM
[5]
  TGI: > 100 µM
[6]
  TGI: > 100 µM
[7]
  TGI: > 100 µM
[8]
  TGI: > 100 µM
[9]
  TGI: > 100 µM
[10]
  TGI: > 100 µM
[11]
  TGI: > 100 µM
[12]
  TGI: > 100 µM
[13]
  TGI: > 100 µM
[14]
  TGI: > 100 µM
[15]
  TGI: > 100 µM
[16]
  TGI: > 100 µM
[17]
  TGI: > 100 µM
[18]
  TGI: > 100 µM
[19]
  TGI: > 100 µM
[20]
  TGI: > 100 µM
[21]
  TGI: > 100 µM
[22]
  TGI: > 100 µM
[23]
  TGI: > 100 µM
[24]
  TGI: > 100 µM
[25]
  TGI: > 100 µM
[26]
  TGI: > 100 µM
[27]
  TGI: > 100 µM
[28]
  TGI: > 100 µM
[29]
  TGI: > 100 µM
[30]
  TGI: > 100 µM
[31]
  TGI: > 100 µM
[32]
  TGI: > 100 µM
[33]
  TGI: > 100 µM
[34]
  TGI: > 100 µM
[35]
  TGI: > 100 µM
[36]
  TGI: > 100 µM
[37]
  TGI: > 100 µM
[38]
  TGI: > 100 µM
[39]
  TGI: > 100 µM
[40]
  TGI: > 100 µM
[41]
  TGI: > 100 µM
[42]
  TGI: > 100 µM
[43]
  TGI: > 100 µM
[44]
  TGI: > 100 µM
[45]
  TGI: > 100 µM
[46]
  TGI: > 100 µM
[47]
  TGI: > 100 µM
[48]
  TGI: > 100 µM
[49]
  TGI: > 100 µM
[50]
  TGI: > 100 µM
[51]
  TGI: > 100 µM
[52]
  TGI: > 100 µM
[53]
  TGI: > 100 µM
[54]
  TGI: > 100 µM

## O=C(CC1(O)C(=O)Nc2ccc(Br)cc21)c1ccc(Cl)cc1 (stereo not given)
[1]
  TGI: > 100 µM
[2]
  TGI: > 100 µM
[4]
  TGI: > 100 µM
[6]
  TGI: > 100 µM
[7]
  TGI: > 100 µM
[8]
  TGI: 87.6 µM
[9]
  TGI: > 100 µM
[55]
  TGI: > 100 µM
[10]
  TGI: > 100 µM
[11]
  TGI: > 100 µM
[12]
  TGI: > 100 µM
[13]
  TGI: > 100 µM
[14]
  TGI: > 100 µM
[15]
  TGI: > 100 µM
[16]
  TGI: > 100 µM
[17]
  TGI: > 100 µM
[18]
  TGI: > 100 µM
[19]
  TGI: > 100 µM
[20]
  TGI: > 100 µM
[21]
  TGI: 95.1 µM
[22]
  TGI: 98 µM
[23]
  TGI: > 100 µM
[24]
  TGI: > 100 µM
[25]
  TGI: > 100 µM
[26]
  TGI: > 100 µM
[27]
  TGI: > 100 µM
[28]
  TGI: > 100 µM
[29]
  TGI: > 100 µM
[30]
  TGI: > 100 µM
[32]
  TGI: > 100 µM
[33]
  TGI: > 100 µM
[34]
  TGI: 77.7 µM
[35]
  TGI: > 100 µM
[36]
  TGI: > 100 µM
[37]
  TGI: > 100 µM
[38]
  TGI: > 100 µM
[40]
  TGI: > 100 µM
[56]
  TGI: > 100 µM
[41]
  TGI: > 100 µM
[42]
  TGI: 38.2 µM
[43]
  TGI: > 100 µM
[44]
  TGI: > 100 µM
[46]
  TGI: > 100 µM
[47]
  TGI: > 100 µM
[57]
  TGI: > 100 µM
[49]
  TGI: > 100 µM
[58]
  TGI: > 100 µM
[51]
  TGI: > 100 µM
[52]
  TGI: > 100 µM
[53]
  TGI: > 100 µM
[54]
  TGI: > 100 µM
